# Peptide text beside a SMILES is read from it.
# Test system: 3T3-L1 Adipocytes
# Test: Free fatty acid levels in cultured mouse 3T3-L1 adipocytes, isoproterenol stimulated (Example 2)
# Format: cell-based
# Details: test peptides 25 μM; isoproterenol 1 nM
# In short: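 Release of free fatty acids, read at 540 nm, was stimulated with 1 nM isoproterenol for 3 h in mouse 3T3-L1 adipocytes (12–17 days of differentiation). Cells were pre-exposed to 25 μM peptide for 18–20 h plus 1 h, with peptide kept in during stimulation. Values are background-subtracted and normalised to isoproterenol alone.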
row,Compound,Free Fatty Acid Levels in 3T3-L1 Adipocytes Expressed as a Percent of Isoproterenol Control: Percent of Control Value
1,CC[C@H](C)[C@H](NC(=O)[C@H](Cc1ccc(O)cc1)NC(=O)CNC(=O)[C@H](C)NC(=O)[C@H](CCC(=O)O)NC(=O)[C@H](CCC(N)=O)NC(=O)[C@H](Cc1c[nH]c2ccccc12)NC(=O)[C@H](CCCNC(=N)N)NC(=O)[C@@H](C)N)C(=O)N[C@@H](C)C(=O)N[C@@H](CCC(=O)O)C(=O)N1CCC[C@H]1C(=O)N[C@@H](CCCNC(=N)N)C(=O)N[C@@H](CCCCN)C(=O)N[C@@H](CC(C)C)C(=O)N[C@H](C)C(=O)O [compound 246] (HELM PEPTIDE1{[dA].R.W.Q.E.A.G.Y.I.A.E.P.R.K.L.[dA]}$$$$V2.0),73.9%
2,Ac-ARWQEMGYIFYPRKLR-NH2 [compound 22],78.7%
3,Ac-ERWQEMGYIFYPRKLR-NH2 [compound 183],81.6%
4,Ac-LKWQEMGYIFYPLRKR-NH2 [compound 113],82.8%
5,Ac-LKWQEMGYIFYPRKLR-NH2 [compound 112],90.5%
6,Ac-LKWQEMGYIFYPRKR-NH2 [compound 117],97.7%
7,Ac-LKWQEMGYIFYPRKRL-NH2 [compound 115],83.4%
8,Ac-LKWQEMGYIFYPRLKR-NH2 [compound 114],78.4%
9,Ac-LRWQEMGYIFYPLRKR-NH2 [compound 109],76.6%
10,Ac-LRWQEMGYIFYPRKLR-NH2 [compound 108],101.3%
11,Ac-LRWQEMGYIFYPRKR-NH2 [compound 116],101.8%
12,Ac-LRWQEMGYIFYPRKRL-NH2 [compound 111],106.0%
13,Ac-LRWQEMGYIFYPRLKR-NH2 [compound 110],82.6%
14,Ac-MAWQEMGYIFYPRKLR-NH2 [compound 23],74.7%
15,Ac-MEWQEMGYIFYPRKLR-NH2 [compound 184],97.1%
16,Ac-MKWQEMGYIFYPRKLR-NH2 [compound 128],90.0%
17,Ac-MREQEMGYIFYPRKLR-NH2 [compound 185],77.0%
18,Ac-MRWAEMGYIFYPRKLR-NH2 [compound 25],27.8%
19,Ac-MRWEEMGYIFYPRKLR-NH2 [compound 186],102.1%
20,Ac-MRWNEMGYIFYPRKLR-NH2 [compound 133],87.5%
21,Ac-MRWQDMGYIFYPRRLR-NH2 [compound 132],102.6%
22,Ac-MRWQEEGYIFYPRKLR-NH2 [compound 187],98.9%

row,Compound,Free Fatty Acid Levels in 3T3-L1 Adipocytes Expressed as a Percent of Isoproterenol Control: Percent of Control Value
1,Ac-MRWQEMAYIFYPRKLR-NH2 [compound 28],35.5%
2,Ac-MRWQEMEYIFYPRKLR-NH2 [compound 188],86.5%
3,Ac-MRWQEMGEIFEPRKLR-NH2 [compound 135],79.0%
4,Ac-MRWQEMGEIFYPRKLR-NH2 [compound 189],87.6%
5,Ac-MRWQEMGYEFYPRKLR-NH2 [compound 190],95.0%
6,Ac-MRWQEMGYIEYPRKLR-NH2 [compound 191],81.7%
7,Ac-MRWQEMGYIF-NH2 [compound 64],90.6%
8,Ac-MRWQEMGYIFEPRKLR-NH2 [compound 192],66.8%
9,Ac-MRWQEMGYIFY-NH2 [compound 63],70.5%
10,Ac-MRWQEMGYIFYERKLR-NH2 [compound 193],71.2%
11,Ac-MRWQEMGYIFYPAKLR-NH2 [compound 34],70.7%
12,Ac-MRWQEMGYIFYPEKLR-NH2 [compound 194],107.2%
13,Ac-MRWQEMGYIFYPKKLR-NH2 [compound 129],82.5%
14,Ac-MRWQEMGYIFYPRALR-NH2 [compound 35],31.3%
15,Ac-MRWQEMGYIFYPRELR-NH2 [compound 195],58.9%
16,Ac-MRWQEMGYIFYPRK-NH2 [compound 60],89.3%
17,Ac-MRWQEMGYIFYPRKER-NH2 [compound 196],80.5%
18,Ac-MRWQEMGYIFYPRKL-NH2 [compound 59],92.2%
19,Ac-MRWQEMGYIFYPRKLE-NH2 [compound 197],84.6%
20,Ac-MRWQEMGYIFYPRKLK-NH2 [compound 130],85.4%
21,Ac-MRWQEMGYIFYPRRLR-NH2 [compound 131],78.1%
22,H-ERWQEAGYIAYPRKLA-OH [compound 239],66.6%

row,Compound,Free Fatty Acid Levels in 3T3-L1 Adipocytes Expressed as a Percent of Isoproterenol Control: Percent of Control Value
1,H-ERWQEAGYIFYPR-OH [compound 235],71.8%
2,H-ERWQEAGYIFYPRKLA-OH [compound 233],69.7%
3,H-ERWQEMGYIFYPRKLR-OH [compound 168],52.2%
4,H-MEWQEMGYIFYPRKLR-OH [compound 169],49.2%
5,H-MGWQEMGYIFYPRKLR-OH [compound 77],112.5%
6,H-MGYIFYPRKLR-OH [compound 42],115.2%
7,H-MKWQEMGYIFYPRKLR-OH [compound 122],52.1%
8,H-MREQEMGYIFYPRKLR-OH [compound 170],48.0%
9,H-MRWEEMGYIFYPRKLR-OH [compound 171],45.9%
10,H-MRWNEMGYIFYPRKLR-OH [compound 127],55.6%
11,H-MRWQDMGYIFYPRRLR-OH [compound 126],55.6%
12,H-MRWQEMEYIFYPRKLR-OH [compound 173],43.9%
13,H-MRWQEMGEIFEPRKLR-OH [compound 134],56.2%
14,H-MRWQEMGEIFYPRKLR-OH [compound 174],38.8%
15,H-MRWQEMGYEFYPRKLR-OH [compound 175],50.6%
16,H-MRWQEMGYIEYPRKLR-OH [compound 176],57.0%
17,H-MRWQEMGYIF-OH [compound 50],97.4%
18,H-MRWQEMGYIFEPRKLR-OH [compound 177],61.4%
19,H-MRWQEMGYIFY-OH [compound 49],103.3%
20,H-MRWQEMGYIFYERKLR-OH [compound 178],67.6%
21,H-MRWQEMGYIFYP-OH [compound 48],57.1%
22,H-MRWQEMGYIFYPEKLR-OH [compound 179],47.2%

# Reference: patent publication US11753445B2, “Therapeutic peptides” (COHBAR, INC., priority 2016, dated 2023)
